Data from patent US20240262819A1, “NOVEL COMPOUNDS HAVING INHIBITORY ACTIVITY AGAINST GLUCOSYLCERAMIDE SYNTHASE OR PHARMACEUTICALLY ACCEPTABLE SALT THEREOF, PROCESSES FOR PREPARING THE SAME, AND PHARMACEUTICAL COMPOSITIONS COMPRISING THE SAME” (YUHAN CORPORATION, priority 2021, published 2024).
Read-outs that look alike come from different tables or passages of the source.

Key:
[1] = test system: GM1 production in Jurkat cells; assay: cells; assay type: cell-based
[2] = biological target: glucosylceramide synthase (GCS) (Homo sapiens (Human), UniProt Q16739); assay: Evaluation of inhibitory activities against GCS (A549 cell lysate, NBD C6-ceramide, HPLC); assay type: biochemical
glucosylceramide synthase (GCS), sequence (Q16739 whole entry): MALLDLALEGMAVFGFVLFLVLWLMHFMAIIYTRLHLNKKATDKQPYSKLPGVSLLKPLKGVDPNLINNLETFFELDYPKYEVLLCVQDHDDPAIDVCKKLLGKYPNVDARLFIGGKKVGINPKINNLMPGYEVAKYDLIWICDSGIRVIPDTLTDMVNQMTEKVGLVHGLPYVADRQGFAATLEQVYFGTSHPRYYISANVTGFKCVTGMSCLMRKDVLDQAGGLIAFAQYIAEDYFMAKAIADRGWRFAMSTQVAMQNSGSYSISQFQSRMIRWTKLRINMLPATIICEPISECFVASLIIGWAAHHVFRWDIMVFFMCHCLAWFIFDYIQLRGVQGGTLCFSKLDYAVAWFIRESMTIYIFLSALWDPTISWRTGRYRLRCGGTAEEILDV
Summary of the method: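 GCS activity in A549 cell lysate (50 mM HEPES, pH 7.3) with NBD C6-ceramide, reacted 90 min at 37 °C. Lipids were chloroform/methanol-extracted and separated by normal-phase HPLC with fluorescence detection (ex 470/em 530 nm). GlcCer fraction of peak area was normalized between DMSO and ibiglustat, and IC50 obtained by curve fitting.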

[3] = Evaluation of blood-brain barrier (BBB) permeability through oral administration; assay type: in vivo, mice; settings: mice, oral, dose 30 mg/kg, 4 hr; for Kp at 4 h / concentration at 4 h: mouse, in vivo; for Kp at 4 h: read-out: Mean brain-plasma drug ratio at 4 hr
Experimental: The blood-brain barrier (BBB) permeability was evaluated in mice, with respect to the compounds according to the present invention and the control (ibiglustat). Each compound of the present invention and the control were suspended in 0.5% methyl cellulose containing 0.2% Tween 80 and then orally administered to mice at a dose of 10 or 30 mg/10 ml/kg. After the whole blood was collected from the heart of each mouse at the time of 4 hours after the administration, it was placed in a lithium heparin tube and immediately centrifuged to obtain the plasma. After the exsanguination was carried out through abdominal vena cava incision, the forebrain was taken by dissection of the head. Both of the forebrain and the plasma were stored in a −80° C. freezer until the analysis of drug concentrations therein. For the analysis of drug concentrations therein, the forebrain was immersed in distilled water and then homogenized with a homogenizer to obtain a homogenate. Each plasma and homogenate was treated with acetonitrile to precipitate proteins, vortexed for 15 seconds, and then centrifuged (12700 rpm, 10 min, 4° C.). The obtained supernatant was diluted with an 80% aqueous solution of acetonitrile containing 0.1% formic acid and then analyzed with an LC-MS/MS instrument. LC-MS/MS analysis was carried out with a reversed-phase column, using distilled water containing 0.1% formic acid and acetonitrile as mobile phases. Each eluted material was detected through a mass spectrometer to calculate the drug concentrations thereof. The brain-plasma drug ratio (B/P ratio) was calculated from the drug concentrations in each tissue to evaluate the blood-brain barrier (BBB) permeability.

[4] = read-out: Mean drug concentrations in brain tissue at 4 hr
[5] = read-out: Mean drug concentrations in plasma at 4 hr
[6] = % GCS activity, A549 cell lysate, 37° C. for 90 minutes, read-out: IC50

## CCOc1ccc(-c2cc3c(cc2F)[C@H](NC(=O)O[C@@H]2CN4CCC2CC4)C(C)(C)C3)cc1Cl [Example 86, (S)-quinuclidin-3-yl((R)-5-(3-chloro-4-ethoxyphenyl)-6-fluoro-2,2-dimethyl-2,3-dihydro-1H-inden-1-yl)carbamate]
[1]; Homo sapiens, Jurkat, 72 h
  IC50: 45.8 nM
[2]
  IC50: 0.756 nM
[3]
  Kp at 4 h: 5.65
[3]; [4]
  concentration at 4 h: 4790 ng/g
[3]; [5]
  concentration at 4 h: 852 ng/mL

## CC(C)Oc1ccc(-c2ccc3c(c2)CCC(C)(C)[C@H]3NC(=O)O[C@@H]2CN3CCC2CC3)c(Cl)c1 [Example 168, (S)-quinuclidin-3-yl((R)-6-(2-chloro-4-isopropoxyphenyl)-2,2-dimethyl-1,2,3,4-tetrahydronaphthalen-1-yl)carbamate]
[1]; Homo sapiens, Jurkat, 72 h
  IC50: 0.23 nM
[2]
  IC50: 0.188 nM
[3]
  Kp at 4 h: 1.18
[3]; [4]
  concentration at 4 h: 3370 ng/g
[3]; [5]
  concentration at 4 h: 2890 ng/mL

## CCc1cccc(-c2ccc3c(c2)CCC(C)(C)[C@H]3NC(=O)O[C@@H]2CN3CCC2CC3)c1 [Example 158, (S)-quinuclidin-3-yl((R)-6-(3-ethylphenyl)-2,2-dimethyl-1,2,3,4-tetrahydronaphthalen-1-yl)carbamate]
[1]; Homo sapiens, Jurkat, 72 h
  IC50: 1.1 nM
[2]
  IC50: 0.45 nM
[3]
  Kp at 4 h: 3.67
[3]; [4]
  concentration at 4 h: 3720 ng/g
[3]; [5]
  concentration at 4 h: 1020 ng/mL

## CCCc1ccc(-c2cc3c(cc2F)[C@H](NC(=O)O[C@@H]2CN4CCC2CC4)C(C)(C)CC3)cc1 [Example 171, (S)-quinuclidin-3-yl((R)-7-fluoro-2,2-dimethyl-6-(4-propylphenyl)-1,2,3,4-tetrahydronaphthalen-1-yl)carbamate]
[1]; Homo sapiens, Jurkat, 72 h
  IC50: 1.4 nM
[2]
  IC50: 0.19 nM
[3]
  Kp at 4 h: 3.88
[3]; [4]
  concentration at 4 h: 2900 ng/g
[3]; [5]
  concentration at 4 h: 748 ng/mL

## Cc1cc(OC(C)C)ccc1-c1ccc2c(c1)CC(C)(C)[C@H]2NC(=O)O[C@@H]1CN2CCC1CC2 [Example 36, (S)-quinuclidin-3-yl((R)-5-(4-isopropoxy-2-methylphenyl)-2,2-dimethyl-2,3-dihydro-1H-inden-1-yl)carbamate]
[1]; Homo sapiens, Jurkat, 72 h
  IC50: 0.7 nM
[2]
  IC50: 0.13 nM
[3]
  Kp at 4 h: 3.65
[3]; [4]
  concentration at 4 h: 6650 ng/g
[3]; [5]
  concentration at 4 h: 1830 ng/mL

## COc1ccc(-c2ccc3c(c2)CC(C)(C)[C@H]3NC(=O)O[C@@H]2CN3CCC2CC3)cc1F [Example 18, (S)-quinuclidin-3-yl((R)-5-(3-fluoro-4-methoxyphenyl)-2,2-dimethyl-2,3-dihydro-1H-inden-1-yl)carbamate]
[1]; Homo sapiens, Jurkat, 72 h
  IC50: 50.7 nM
[2]
  IC50: 3.19 nM
[3]
  Kp at 4 h: 3.47
[3]; [4]
  concentration at 4 h: 3950 ng/g
[3]; [5]
  concentration at 4 h: 1130 ng/mL

## CC(C)c1cccc(-c2ccc3c(c2)CCC(C)(C)[C@H]3NC(=O)O[C@@H]2CN3CCC2CC3)c1 [Example 162, (S)-quinuclidin-3-yl((R)-6-(3-isopropylphenyl)-2,2-dimethyl-1,2,3,4-tetrahydronaphthalen-1-yl)carbamate]
[1]; Homo sapiens, Jurkat, 72 h
  IC50: 1.4 nM
[2]
  IC50: 7.55 nM
[3]
  Kp at 4 h: 3.71
[3]; [4]
  concentration at 4 h: 3570 ng/g
[3]; [5]
  concentration at 4 h: 967 ng/mL

## CC(C)Oc1ccc(-c2cc3c(cc2F)[C@H](NC(=O)O[C@@H]2CN4CCC2CC4)C(C)(C)CC3)cc1F [Example 198, (S)-quinuclidin-3-yl((R)-7-fluoro-6-(3-fluoro-4-isopropoxyphenyl)-2,2-dimethyl-1,2,3,4-tetrahydronaphthalen-1-yl)carbamate]
[1]; Homo sapiens, Jurkat, 72 h
  IC50: 3.2 nM
[2]
  IC50: 0.34 nM
[3]
  Kp at 4 h: 3.46
[3]; [4]
  concentration at 4 h: 5120 ng/g
[3]; [5]
  concentration at 4 h: 1480 ng/mL

## Cc1cc(-c2ccc3c(c2)CC(C)(C)[C@H]3NC(=O)O[C@@H]2CN3CCC2CC3)ccc1OC(C)C [Example 34, (S)-quinuclidin-3-yl((R)-5-(4-isopropoxy-3-methylphenyl)-2,2-dimethyl-2,3-dihydro-1H-inden-1-yl)carbamate]
[1]; Homo sapiens, Jurkat, 72 h
  IC50: 2.3 nM
[2]
  IC50: 1.31 nM
[3]
  Kp at 4 h: 14
[3]; [4]
  concentration at 4 h: 10700 ng/g
[3]; [5]
  concentration at 4 h: 767 ng/mL

## COc1ccc(-c2cc3c(cc2F)[C@H](NC(=O)O[C@@H]2CN4CCC2CC4)C(C)(C)CC3)c(F)c1 [Example 194, (S)-quinuclidin-3-yl((R)-7-fluoro-6-(2-fluoro-4-methoxyphenyl)-2,2-dimethyl-1,2,3,4-tetrahydronaphthalen-1-yl)carbamate]
[1]; Homo sapiens, Jurkat, 72 h
  IC50: 4.6 nM
[2]
  IC50: 0.41 nM
[3]
  Kp at 4 h: 1.67
[3]; [4]
  concentration at 4 h: 2100 ng/g
[3]; [5]
  concentration at 4 h: 1260 ng/mL

## CC(C)Oc1cccc(-c2ccc3c(c2)CCC(C)(C)[C@H]3NC(=O)O[C@@H]2CN3CCC2CC3)c1 [Example 165, (S)-quinuclidin-3-yl((R)-6-(3-isopropoxyphenyl)-2,2-dimethyl-1,2,3,4-tetrahydronaphthalen-1-yl)carbamate]
[1]; Homo sapiens, Jurkat, 72 h
  IC50: 2.51 nM
[2]
  IC50: 0.55 nM
[3]
  Kp at 4 h: 2.83
[3]; [4]
  concentration at 4 h: 2400 ng/g
[3]; [5]
  concentration at 4 h: 852 ng/mL

## (S)-quinuclidin-3-yl((R)-7-fluoro-2,2-dimethyl-6-(4-propoxyphenyl)-1,2,3,4-tetrahydronaphthalen-1-yl) carbamate [Example 177]
[1]; read-out: IC50
  IC50: 0.43 nM
[2]; [6]
  IC50: 0.25 nM
[3]
  Mean brain-plasma drug ratio at 4 hr: 5.444
  Mean drug concentrations in brain tissue at 4 hr: 4788.9 ng/g
  Mean drug concentrations in plasma at 4 hr: 880.7 ng/mL

## CC(C)Oc1ccc(-c2cc3c(cc2F)[C@H](NC(=O)O[C@@H]2CN4CCC2CC4)C(C)(C)CC3)cc1 [Example 197, (S)-quinuclidin-3-yl((R)-7-fluoro-6-(4-isopropoxyphenyl)-2,2-dimethyl-1,2,3,4-tetrahydronaphthalen-1-yl)carbamate]
[1]; Homo sapiens, Jurkat, 72 h
  IC50: 0.94 nM
[2]
  IC50: 0.2 nM
[3]
  Kp at 4 h: 3.56
[3]; [4]
  concentration at 4 h: 6690 ng/g
[3]; [5]
  concentration at 4 h: 1880 ng/mL

## CCOc1ccc(-c2ccc3c(c2)CC(C)(C)[C@H]3NC(=O)O[C@@H]2CN3CCC2CC3)c(Cl)c1 [Example 44, (S)-quinuclidin-3-yl((R)-5-(2-chloro-4-ethoxyphenyl)-2,2-dimethyl-2,3-dihydro-1H-inden-1-yl)carbamate]
[1]; Homo sapiens, Jurkat, 72 h
  IC50: 2.3 nM
[2]
  IC50: 0.17 nM
[3]
  Kp at 4 h: 4.79
[3]; [4]
  concentration at 4 h: 8860 ng/g
[3]; [5]
  concentration at 4 h: 1850 ng/mL

## CC(C)Oc1ccc(-c2cc3c(cc2F)[C@H](NC(=O)O[C@@H]2CN4CCC2CC4)C(C)(C)C3)c(Cl)c1 [Example 92, (S)-quinuclidin-3-yl((R)-5-(2-chloro-4-isopropoxyphenyl)-6-fluoro-2,2-dimethyl-2,3-dihydro-1H-inden-1-yl)carbamate]
[1]; Homo sapiens, Jurkat, 72 h
  IC50: 1.16 nM
[2]
  IC50: 0.07 nM
[3]
  Kp at 4 h: 4.13
[3]; [4]
  concentration at 4 h: 2230 ng/g
[3]; [5]
  concentration at 4 h: 545 ng/mL

## CCCOc1c(C)cc(-c2cc3c(cc2F)[C@H](NC(=O)O[C@@H]2CN4CCC2CC4)C(C)(C)CC3)cc1C [Example 181, (S)-quinuclidin-3-yl((R)-6-(3,5-dimethyl-4-propoxyphenyl)-7-fluoro-2,2-dimethyl-1,2,3,4-tetrahydronaphthalen-1-yl)carbamate]
[1]; Homo sapiens, Jurkat, 72 h
  IC50: 7.1 nM
[2]
  IC50: 1.85 nM
[3]
  Kp at 4 h: 1.65
[3]; [4]
  concentration at 4 h: 848 ng/g
[3]; [5]
  concentration at 4 h: 510 ng/mL

## CC(C)Oc1ccc(-c2ccc3c(c2)CCC(C)(C)[C@H]3NC(=O)O[C@@H]2CN3CCC2CC3)cc1Cl [Example 150, (S)-quinuclidin-3-yl((R)-6-(3-chloro-4-isopropoxyphenyl)-2,2-dimethyl-1,2,3,4-tetrahydronaphthalen-1-yl) carbamate]
[1]; read-out: IC50
  IC50: 3.27 nM
[2]; [6]
  IC50: 1.26 nM
[3]
  Mean brain-plasma drug ratio at 4 hr: 1.471
  Mean drug concentrations in brain tissue at 4 hr: 1520.5 ng/g
  Mean drug concentrations in plasma at 4 hr: 1065 ng/mL

## COc1ccc(-c2ccc3c(c2)CCC(C)(C)[C@H]3NC(=O)O[C@@H]2CN3CCC2CC3)cc1 [Example 166, (S)-quinuclidin-3-yl((R)-6-(4-methoxyphenyl)-2,2-dimethyl-1,2,3,4-tetrahydronaphthalen-1-yl)carbamate]
[1]; Homo sapiens, Jurkat, 72 h
  IC50: 5.9 nM
[2]
  IC50: 0.69 nM

## (S)-quinuclidin-3-yl((R)-7-fluoro-6-(4-methoxyphenyl)-2,2-dimethyl-1,2,3,4-tetrahydronaphthalen-1-yl) carbamate [Example 175]
[1]; read-out: IC50
  IC50: 3.8 nM
[2]; [6]
  IC50: 0.28 nM

## Cc1cc(-c2cc3c(cc2F)[C@H](NC(=O)O[C@@H]2CN4CCC2CC4)C(C)(C)C3)ccc1OC(C)C [Example 94, (S)-quinuclidin-3-yl((R)-6-fluoro-5-(4-isopropoxy-3-methylphenyl)-2,2-dimethyl-2,3-dihydro-1H-inden-1-yl)carbamate]
[1]; Homo sapiens, Jurkat, 72 h
  IC50: 12.1 nM
[2]
  IC50: 0.52 nM

## COc1c(C)cc(-c2ccc3c(c2)CCC(C)(C)[C@H]3NC(=O)O[C@@H]2CN3CCC2CC3)cc1C [Example 147, (S)-quinuclidin-3-yl((R)-6-(4-methoxy-3,5-dimethylphenyl)-2,2-dimethyl-1,2,3,4-tetrahydronaphthalen-1-yl) carbamate]
[1]; read-out: IC50
  IC50: 9.4 nM
[2]; [6]
  IC50: 1.18 nM
